The supplement of paper PMC5908809

What was measured:
[1] = system: normal NK cells expanded with K562-aAPC; assay: percent inhibition of viability; higher = more inhibition; settings: 72 h, IL-2 2.5 ng/mL
Description: (§1)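 Drug sensitivity and resistance testing on K562-aAPC-expanded normal NK cells: 5 concentrations (10-fold steps over a 10,000-fold range), 72 h at 37 °C, viability by CellTiter-Glo normalised to DMSO and benzethonium chloride controls; DSS from the fitted curve.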

DERL-7 (IL-2 2.5 ng/mL) [2] = assay: as above; settings: 72 h
IMC-1 (IL-2 20 ng/mL) [3] = assay: as above; settings: 72 h
KAI3 (IL-2 2.5 ng/mL) [4] = assay: as above; settings: 72 h
KHYG-1 (IL-2 2.5 ng/mL) [5] = assay: as above; settings: 72 h
NK-92 (IL-2 2.5 ng/mL) [6] = assay: as above; settings: 72 h
NK-YS (IL-2 2.5 ng/mL) [7] = assay: as above; settings: 72 h
NKL (IL-2 2.5 ng/mL) [8] = assay: as above; settings: 72 h
SNK-6 (IL-2 2.5 ng/mL) [9] = assay: as above; settings: 72 h
YT (IL-2 2.5 ng/mL) [10] = assay: as above; settings: 72 h
[11] = system: normal primary NK cells, pool 1 (3 donors) (IL-2 2.5 ng/mL); assay: as above; settings: 72 h
[12] = system: normal primary NK cells, pool 1 (3 donors), resting (IL-2 0 ng/mL); assay: as above; settings: 72 h
[13] = system: normal primary NK cells, pool 2 (3 donors) (IL-2 2.5 ng/mL); assay: as above; settings: 72 h
[14] = system: normal primary NK cells, pool 3 (3 donors) (IL-2 2.5 ng/mL); assay: as above; settings: 72 h
[15] = system: normal NK cells expanded with K562-aAPC; assay: drug sensitivity score (DSS) (DSS units); higher = more sensitive; extreme values may be limits of the assay; settings: 72 h; IL-2 2.5 ng/mL
Description: as §1

DERL-7 (IL-2 2.5 ng/mL) [16] = assay: as above; settings: 72 h
IMC-1 (IL-2 20 ng/mL) [17] = assay: as above; settings: 72 h
KAI3 (IL-2 2.5 ng/mL) [18] = assay: as above; settings: 72 h
KHYG-1 (IL-2 2.5 ng/mL) [19] = assay: as above; settings: 72 h
NK-92 (IL-2 2.5 ng/mL) [20] = assay: as above; settings: 72 h
NK-YS (IL-2 2.5 ng/mL) [21] = assay: as above; settings: 72 h
NKL (IL-2 2.5 ng/mL) [22] = assay: as above; settings: 72 h
SNK-6 (IL-2 2.5 ng/mL) [23] = assay: as above; settings: 72 h
YT (IL-2 2.5 ng/mL) [24] = assay: as above; settings: 72 h
[25] = system: normal primary NK cells, pool 1 (3 donors) (IL-2 2.5 ng/mL); assay: as above; settings: 72 h
[26] = system: normal primary NK cells, pool 1 (3 donors), resting (IL-2 0 ng/mL); assay: as above; settings: 72 h
[27] = system: normal primary NK cells, pool 2 (3 donors) (IL-2 2.5 ng/mL); assay: as above; settings: 72 h
[28] = system: normal primary NK cells, pool 3 (3 donors) (IL-2 2.5 ng/mL); assay: as above; settings: 72 h

COc1ccc(C[C@H](NC(=O)[C@H](C)NC(=O)CN2CCOCC2)C(=O)N[C@@H](Cc2ccccc2)C(=O)C2(C)CO2)cc1 (stereo in doubt) [ONX-0914] (max concentration tested 10000 nM)
percent inhibition of viability [%]
Settings | 1 nM | 10 nM | 100 nM | 1000 nM | 10000 nM
DERL-7 (IL-2 2.5 ng/mL) [2] | 6.02 | 28.7 | 92.2 | 101 | 101
IMC-1 (IL-2 20 ng/mL) [3] | 2.14 | -0.04 | 24.1 | 100 | 101
KAI3 (IL-2 2.5 ng/mL) [4] | 12.7 | 28.5 | 93.7 | 106 | 102
KHYG-1 (IL-2 2.5 ng/mL) [5] | -0.77 | 1.13 | 29.1 | 104 | 101
NK-92 (IL-2 2.5 ng/mL) [6] | -8.67 | 15.8 | 93.1 | 106 | 102
NK-YS (IL-2 2.5 ng/mL) [7] | 13.1 | 15.9 | 75 | 105 | 102
NKL (IL-2 2.5 ng/mL) [8] | 10.8 | 1.76 | 103 | 106 | 102
SNK-6 (IL-2 2.5 ng/mL) [9] | -1.52 | 17.8 | 58.1 | 101 | 101
YT (IL-2 2.5 ng/mL) [10] | -1.7 | 3.7 | 69.5 | 104 | 101
[1] | 6.48 | 5.84 | 57.1 | 101 | 101
[11] | -4.25 | 8.47 | 92.5 | 100 | 100
[12] | -25.3 | 21.3 | 91 | 96.4 | 97.3
[13] | -9.54 | 18.2 | 87.2 | 99.6 | 99.8
[14] | -6.21 | 2.14 | 73.6 | 99.9 | 100

Settings | drug sensitivity score
DERL-7 (IL-2 2.5 ng/mL) [16] | 32.7
IMC-1 (IL-2 20 ng/mL) [17] | 21.7
KAI3 (IL-2 2.5 ng/mL) [18] | 32.9
KHYG-1 (IL-2 2.5 ng/mL) [19] | 22.3
NK-92 (IL-2 2.5 ng/mL) [20] | 31.6
NK-YS (IL-2 2.5 ng/mL) [21] | 28.6
NKL (IL-2 2.5 ng/mL) [22] | 30.9
SNK-6 (IL-2 2.5 ng/mL) [23] | 25.6
YT (IL-2 2.5 ng/mL) [24] | 26.3
[15] | 24.8
[25] | 30.5
[26] | 31.9
[27] | 30.7
[28] | 26.7

COc1cc2c(cc1O)CC[C@@H]1[C@@H]2CC[C@]2(C)[C@@H](O)CC[C@@H]12 [2-methoxyestradiol] (max concentration tested 10000 nM)
percent inhibition of viability [%]
Settings | 1 nM | 10 nM | 100 nM | 1000 nM | 10000 nM
DERL-7 (IL-2 2.5 ng/mL) [2] | -1.82 | 1.54 | 2.89 | 73.2 | 98.9
IMC-1 (IL-2 20 ng/mL) [3] | -3.9 | 0.72 | -4.99 | 63.4 | 98.5
KAI3 (IL-2 2.5 ng/mL) [4] | -6.2 | -3.7 | 1.79 | 50 | 57.4
KHYG-1 (IL-2 2.5 ng/mL) [5] | -6.84 | -2.25 | -0.37 | 97.8 | 97.9
NK-92 (IL-2 2.5 ng/mL) [6] | -11.8 | -5.92 | 24.8 | 96.2 | 92.4
NK-YS (IL-2 2.5 ng/mL) [7] | -6.42 | -2.65 | 5.43 | 77.6 | 66
NKL (IL-2 2.5 ng/mL) [8] | -3.96 | -6.41 | 12.5 | 85.8 | 90.6
SNK-6 (IL-2 2.5 ng/mL) [9] | 15.9 | 5.08 | 4.83 | 72.8 | 66.2
YT (IL-2 2.5 ng/mL) [10] | -5.93 | 2.82 | 1.11 | 86.5 | 92.7
[1] | -7.6 | -11.6 | -10.8 | 9.36 | 53
[11] | -5.08 | 0.22 | -0.63 | 10 | 19.8
[12] | -17.5 | -7.16 | 17.8 | 3.53 | 29.8
[13] | -5.21 | -10.5 | -5.24 | 0.1 | 16.3
[14] | -10.4 | -14 | -8.74 | -10.1 | 2.72

Settings | drug sensitivity score
DERL-7 (IL-2 2.5 ng/mL) [16] | 14.2
IMC-1 (IL-2 20 ng/mL) [17] | 12.8
KAI3 (IL-2 2.5 ng/mL) [18] | 9.37
KHYG-1 (IL-2 2.5 ng/mL) [19] | 17.6
NK-92 (IL-2 2.5 ng/mL) [20] | 21.1
NK-YS (IL-2 2.5 ng/mL) [21] | 15
NKL (IL-2 2.5 ng/mL) [22] | 17.5
SNK-6 (IL-2 2.5 ng/mL) [23] | 14
YT (IL-2 2.5 ng/mL) [24] | 15.9
[15] | 4.38
[25] | 1.6
[26] | 1.87
[27] | 0.33
[28] | 0
